In US11078189B2, “Pharmaceutical compounds” (REVIRAL LIMITED, priority 2017, dated 2021):

Columns and labels:
CYP2C19 = biological target: T1, CYP2C19 (Homo sapiens, UniProt P33261); experiment: Cytochrome P450 inhibition CYP2C19; format: in vitro ADME; conditions: human liver microsomes
T1 construct: from tissue; host or cells: human liver microsomes
Protocol: (§1) Test compound (0.1, 0.25, 1, 2.5, 10, 25 μM in DMSO; final DMSO concentration 0.3%) was incubated with human liver microsomes (0.25 mg/mL) and NADPH (1 mM) in the presence of a cytochrome P450 isoform-specific probe substrate. The metabolites were monitored by LC-MS/MS and a decrease in the formation of the metabolite compared to the vehicle control used to calculate an IC50 value (test compound concentration which produces 50% inhibition). A cytochrome P450 isoform-specific selective inhibitor was screened alongside the test compounds as a positive control.

RSV A2 VR-1540 = experiment: RSV plaque reduction assay; format: cell-based; conditions: human respiratory syncytial virus; Strain A2; n = 1; HEp-2 cells
Protocol: HEp-2 cells (ATCC, CCL23) were passaged in flasks and seeded in 96-well plates in DMEM containing antibiotics and supplemented with 10% FBS. During inoculation and subsequent incubation, cells were cultured in DMEM containing 3% FBS. 100 plaque forming unit (PFU)/well of RSV (RSV A2 VR-1540) was mixed with ten serial dilutions of compound. Subsequently, 100 μL of the virus/compound mixtures was added to confluent HEp-2 cell monolayers. The cells and virus/compound mixtures were incubated at 35° C. in a humidified 5% CO2 incubator for 1 day.
Cells were washed twice with PBS before adding 50% v/v EtOH/MeOH, and then stored at −20° C. On the day of the staining, fixative was first removed from the plates. Plates were washed 3× with PBS. A pre-titrated amount of the primary antibody was added in 60 μL PBS/2% milk powder, and plates incubated for 1 h at […]. The plates were washed 3× with PBS/0.05% Tween20 before addition of goat anti-mouse horse radish peroxidase in 60 μL PBS/2% milk powder, and incubated for 1 h at rt. Following three wash steps with PBS/0.05% Tween20, 60 μL ready-to-use TrueBlue was added and plates were incubated at rt for 10-15 min before adding MilliQ water. Plates were washed once with water, incubated for 30-60 min and after removal of water, air-dried in the dark.
Plates were scanned and analyzed using the Immunospot S6 UV analyzer, which is equipped with BioSpot analysis software for counting immunostained plaques (virospots). Plaque counts were used to calculate % infection relative to the mean of the spot count (SC) in the virus control wells for RSV. IC50/IC90 values were calculated as 50% or 90% reduction in signal, respectively, by interpolation of inhibition curves fitted with a 4-parameter nonlinear regression with a variable slope in GraphPad 5.0 (Prism).

[1] = Liver microsomal stability, human; format: in vitro ADME; conditions: pooled liver microsomes, pH 7.4; human liver microsomes 0.5 mg/mL; 3 μM compound; read-out: Liver Microsoinal Stability t1/2, human
Protocol: Pooled liver microsomes are purchased from a reputable commercial supplier and stored at −80° C. prior to use. Microsomes (final protein concentration 0.5 mg/mL), 0.1 M phosphate buffer pH 7.4 and test compound (final substrate concentration 3 μM; final DMSO concentration 0.25%) are pre-incubated at 37° C. prior to the addition of NADPH (final concentration 1 mM) to initiate the reaction. The final incubation volume is 50 uL. A control incubation is included for each compound tested where 0.1 M phosphate buffer pH 7.4 is added instead of NADPH (minus NADPH). Two control compounds are included with each species. All incubations are performed singularly for each test compound. Each compound is incubated for 0, 5, 15, 30 and 45 min. The control (minus NADPH) is incubated for 45 min only. The reactions are stopped by transferring 20 μL of incubate to 60 μL MeOH at the appropriate time points. The termination plates are centrifuged at 2,500 rpm for 20 min at 4° C. to precipitate the protein. Following protein precipitation, the sample supernatants are combined in cassettes of up to 4 compounds, internal standard is added and samples analysed by LC-MS/MS. From a plot of In peak area ratio (compound peak area/internal standard peak area) against time, the gradient of the line is determined. Subsequently, half-life and intrinsic clearance are calculated.

CYP1A2 = biological target: T2, CYP1A2 (Homo sapiens, UniProt P05177); experiment: Cytochrome P450 inhibition CYP1A2; format: in vitro ADME; conditions: human liver microsomes
T2 construct: from tissue; host or cells: human liver microsomes
T2 sequence (P05177 1-516): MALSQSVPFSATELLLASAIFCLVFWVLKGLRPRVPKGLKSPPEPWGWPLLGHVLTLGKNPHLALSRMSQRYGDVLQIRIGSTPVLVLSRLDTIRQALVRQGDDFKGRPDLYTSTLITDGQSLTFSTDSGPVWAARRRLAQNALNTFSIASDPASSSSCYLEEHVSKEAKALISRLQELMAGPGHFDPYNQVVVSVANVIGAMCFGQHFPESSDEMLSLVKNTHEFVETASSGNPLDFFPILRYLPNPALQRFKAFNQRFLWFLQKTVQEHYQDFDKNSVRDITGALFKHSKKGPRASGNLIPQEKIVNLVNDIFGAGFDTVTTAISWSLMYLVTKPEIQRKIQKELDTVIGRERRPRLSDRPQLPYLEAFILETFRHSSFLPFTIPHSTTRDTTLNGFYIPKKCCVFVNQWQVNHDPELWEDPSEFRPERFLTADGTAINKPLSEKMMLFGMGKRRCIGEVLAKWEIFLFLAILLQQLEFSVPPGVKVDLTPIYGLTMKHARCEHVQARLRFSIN
Protocol: as §1

CYP2C8 = biological target: T3, CYP2C8 (Homo sapiens, UniProt P10632); experiment: Cytochrome P450 inhibition CYP2C8; format: in vitro ADME; conditions: human liver microsomes
T3 construct: from tissue; host or cells: human liver microsomes
T3 sequence (P10632 1-490): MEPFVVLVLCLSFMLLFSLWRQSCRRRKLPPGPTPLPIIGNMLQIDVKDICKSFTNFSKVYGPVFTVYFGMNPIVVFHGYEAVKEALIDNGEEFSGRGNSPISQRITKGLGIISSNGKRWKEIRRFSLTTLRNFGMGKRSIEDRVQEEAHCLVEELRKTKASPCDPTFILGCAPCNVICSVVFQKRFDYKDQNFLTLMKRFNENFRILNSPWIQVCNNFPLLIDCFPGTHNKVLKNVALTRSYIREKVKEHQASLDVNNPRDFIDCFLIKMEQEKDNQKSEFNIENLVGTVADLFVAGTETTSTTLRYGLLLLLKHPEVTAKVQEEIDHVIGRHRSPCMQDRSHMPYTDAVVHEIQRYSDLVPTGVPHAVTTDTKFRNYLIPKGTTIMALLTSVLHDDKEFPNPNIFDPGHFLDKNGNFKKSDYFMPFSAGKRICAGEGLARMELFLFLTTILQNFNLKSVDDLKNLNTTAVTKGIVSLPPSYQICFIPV
Protocol: as §1

T1 sequence (P33261 whole entry): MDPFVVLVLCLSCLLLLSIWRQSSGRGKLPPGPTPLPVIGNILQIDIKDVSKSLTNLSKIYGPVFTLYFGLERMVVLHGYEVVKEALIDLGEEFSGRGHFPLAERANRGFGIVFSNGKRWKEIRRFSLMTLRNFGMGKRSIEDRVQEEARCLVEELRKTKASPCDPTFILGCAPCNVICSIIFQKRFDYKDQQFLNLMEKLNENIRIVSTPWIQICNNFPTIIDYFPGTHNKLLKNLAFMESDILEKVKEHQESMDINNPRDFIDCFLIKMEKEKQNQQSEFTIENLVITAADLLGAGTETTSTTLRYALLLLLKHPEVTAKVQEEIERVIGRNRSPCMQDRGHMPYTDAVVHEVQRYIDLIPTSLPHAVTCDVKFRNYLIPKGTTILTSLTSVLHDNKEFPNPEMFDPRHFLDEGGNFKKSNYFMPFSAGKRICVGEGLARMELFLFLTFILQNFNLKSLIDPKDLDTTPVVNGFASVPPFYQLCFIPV

For CS(=O)(=O)N1CCC(n2c(CN3C(=O)C4(CC4)c4ccc(F)cc43)nc3cc(Cl)ccc32)CC1 [Compound 33, 1′-{[5-Chloro-1-(1-methanesulfonylpiperidin-4-yl)-1H-1,3-benzodiazol-2-yl]methyl}-6′-fluoro-1′,2′-dihydrospiro[cyclopropane-1,3′-indole]-2′-one], the IC50 (CYP2C19) was over 25 µM, the IC50 (RSV A2 VR-1540) was 0.49 nM and the IC90 (RSV A2 VR-1540) was 4.4 nM. For the same compound, the half-life at 3 μM [1] was 486 min, the IC50 (CYP1A2) was over 25 µM and the IC50 (CYP2C8) was over 25 µM.

For CCS(=O)(=O)N1CCC(n2c(CN3C(=O)C4(CC4)c4ccc(F)cc43)nc3cc(Cl)ccc32)CC1 [Compound 35, 1′-({5-Chloro-1-[1-(ethanesulfonyl)piperidin-4-yl]-1H-1,3-benzodiazol-2-yl}methyl)-6′-fluoro-1′,2′-dihydrospiro[cyclopropane-1,3′-indole]-2′-one], the IC50 (RSV A2 VR-1540) was 0.87 nM, the IC90 (RSV A2 VR-1540) was 5.2 nM and the half-life at 3 μM [1] was 34.6 min.
